According to patent US8445492B2, “Method for inhibiting growth of cancer cells and cell telomere and diseases of cell proliferation by using heteroannelated anthraquinone derivative compounds” (National Defense Medical Center, priority 2008, dated 2013):

How the values were obtained:
Type in all cases: cell-based
IGROV1 = assay: NCI DTP in-vitro dose response, Ovarian Cancer
SK-OV-3 = assay: NCI DTP in-vitro dose response, Ovarian Cancer
OVCAR-4 = assay: NCI DTP in-vitro dose response, Ovarian Cancer
OVCAR-3 = assay: NCI DTP in-vitro dose response, Ovarian Cancer
OVCAR-8 = assay: NCI DTP in-vitro dose response, Ovarian Cancer
OVCAR-5 = assay: NCI DTP in-vitro dose response, Ovarian Cancer
MDA-MB-468 = assay: NCI DTP in-vitro dose response, Breast Cancer
NCI/ADR-RES = assay: NCI DTP in-vitro dose response, Breast Cancer
MDA-MB-435 = assay: NCI DTP in-vitro dose response, Breast Cancer
HS 578T = assay: NCI DTP in-vitro dose response, Breast Cancer
T-47D = assay: NCI DTP in-vitro dose response, Breast Cancer
MCF7 = assay: NCI DTP in-vitro dose response, Breast Cancer
BT-549 = assay: NCI DTP in-vitro dose response, Breast Cancer
MDA-MB-231/ATCC = assay: NCI DTP in-vitro dose response, Breast Cancer

For `CCc1nc2ccc3c(c2[nH]1)C(=O)c1ccccc1C3=O` [TABLE 4-6], the CC50 (IGROV1) was > 100 µM, the GI50 (IGROV1) was 1.34 µM and the TGI (IGROV1) was 1.69E−5. The “Percent Growth” value (IGROV1; Log10 Concentration −4.0) was −19%, the “Percent Growth” value (IGROV1; Log10 Concentration −5.0) was 6% and the “Percent Growth” value (IGROV1; Log10 Concentration −6.0) was 56%. For the same molecule, the “Percent Growth” value (IGROV1; Log10 Concentration −7.0) was 88%, the “Percent Growth” value (IGROV1; Log10 Concentration −8.0) was 89% and the CC50 (SK-OV-3) was > 100 µM. For the same molecule, the TGI (SK-OV-3) was >1.00E−4, the “Percent Growth” value (SK-OV-3; Log10 Concentration −4.0) was 14% and the “Percent Growth” value (SK-OV-3; Log10 Concentration −5.0) was 12%. The “Percent Growth” value (SK-OV-3; Log10 Concentration −6.0) was 76%, the “Percent Growth” value (SK-OV-3; Log10 Concentration −7.0) was 92% and the “Percent Growth” value (SK-OV-3; Log10 Concentration −8.0) was 95%. The GI50 (SK-OV-3; read-out: GI50) was 2.55 µM, the CC50 (OVCAR-4) was > 100 µM and the TGI (OVCAR-4) was >1.00E−4. The “Percent Growth” value (OVCAR-4; Log10 Concentration −4.0) was 15%, the “Percent Growth” value (OVCAR-4; Log10 Concentration −5.0) was 37% and the “Percent Growth” value (OVCAR-4; Log10 Concentration −6.0) was 83%. The “Percent Growth” value (OVCAR-4; Log10 Concentration −7.0) was 96%, the “Percent Growth” value (OVCAR-4; Log10 Concentration −8.0) was 98% and the GI50 (OVCAR-4; read-out: GI50) was 5.18 µM. For the same molecule, the CC50 (OVCAR-3) was > 100 µM, the TGI (OVCAR-3) was >1.00E−4 and the “Percent Growth” value (OVCAR-3; Log10 Concentration −4.0) was 8%. The “Percent Growth” value (OVCAR-3; Log10 Concentration −5.0) was 57%, the “Percent Growth” value (OVCAR-3; Log10 Concentration −6.0) was 93% and the “Percent Growth” value (OVCAR-3; Log10 Concentration −7.0) was 106%. The “Percent Growth” value (OVCAR-3; Log10 Concentration −8.0) was 100%, the GI50 (OVCAR-3; read-out: GI50) was 14.1 µM and the CC50 (OVCAR-8) was > 100 µM. The TGI (OVCAR-8) was >1.00E−4, the “Percent Growth” value (OVCAR-8; Log10 Concentration −4.0) was 24% and the “Percent Growth” value (OVCAR-8; Log10 Concentration −5.0) was 58%. For the same molecule, the “Percent Growth” value (OVCAR-8; Log10 Concentration −6.0) was 92%, the “Percent Growth” value (OVCAR-8; Log10 Concentration −7.0) was 91% and the “Percent Growth” value (OVCAR-8; Log10 Concentration −8.0) was 96%. The GI50 (OVCAR-8; read-out: GI50) was 17.7 µM, the CC50 (OVCAR-5) was > 100 µM and the TGI (OVCAR-5) was >1.00E−4. The “Percent Growth” value (OVCAR-5; Log10 Concentration −4.0) was 45%, the “Percent Growth” value (OVCAR-5; Log10 Concentration −5.0) was 85% and the “Percent Growth” value (OVCAR-5; Log10 Concentration −6.0) was 94%. The “Percent Growth” value (OVCAR-5; Log10 Concentration −7.0) was 91%, the “Percent Growth” value (OVCAR-5; Log10 Concentration −8.0) was 88% and the GI50 (OVCAR-5; read-out: GI50) was 75.7 µM.

In the case of `CCc1nc2ccc3c(c2[nH]1)C(=O)c1ccccc1C3=O` [TABLE 4-9], the CC50 (MDA-MB-468) is reported as > 100 µM, the TGI (MDA-MB-468) is reported as 6.33E−5 and the “Percent Growth” value (MDA-MB-468; Log10 Concentration −4.0) is reported as −7%. For the same molecule, the “Percent Growth” value (MDA-MB-468; Log10 Concentration −5.0) was 29%, the “Percent Growth” value (MDA-MB-468; Log10 Concentration −6.0) was 79% and the “Percent Growth” value (MDA-MB-468; Log10 Concentration −7.0) was 89%. For the same molecule, the “Percent Growth” value (MDA-MB-468; Log10 Concentration −8.0) was 83%, the GI50 (MDA-MB-468; read-out: GI50) was 3.83 µM and the CC50 (NCI/ADR-RES) was > 100 µM. For the same molecule, the TGI (NCI/ADR-RES) was >1.00E−4, the “Percent Growth” value (NCI/ADR-RES; Log10 Concentration −4.0) was 6% and the “Percent Growth” value (NCI/ADR-RES; Log10 Concentration −5.0) was 51%. For the same molecule, the “Percent Growth” value (NCI/ADR-RES; Log10 Concentration −6.0) was 89%, the “Percent Growth” value (NCI/ADR-RES; Log10 Concentration −7.0) was 99% and the “Percent Growth” value (NCI/ADR-RES; Log10 Concentration −8.0) was 95%. The GI50 (NCI/ADR-RES; read-out: GI50) was 10.5 µM, the CC50 (MDA-MB-435) was > 100 µM and the TGI (MDA-MB-435) was >1.00E−4. The “Percent Growth” value (MDA-MB-435; Log10 Concentration −4.0) was 37%, the “Percent Growth” value (MDA-MB-435; Log10 Concentration −5.0) was 66% and the “Percent Growth” value (MDA-MB-435; Log10 Concentration −6.0) was 92%. For the same molecule, the “Percent Growth” value (MDA-MB-435; Log10 Concentration −7.0) was 91%, the “Percent Growth” value (MDA-MB-435; Log10 Concentration −8.0) was 97% and the GI50 (MDA-MB-435; read-out: GI50) was 36.5 µM. The CC50 (HS 578T) was > 100 µM, the TGI (HS 578T) was 2.67E−5 and the “Percent Growth” value (HS 578T; Log10 Concentration −4.0) was −32%. For the same molecule, the “Percent Growth” value (HS 578T; Log10 Concentration −5.0) was 24%, the “Percent Growth” value (HS 578T; Log10 Concentration −6.0) was 56% and the “Percent Growth” value (HS 578T; Log10 Concentration −7.0) was 108%. The “Percent Growth” value (HS 578T; Log10 Concentration −8.0) was 107%, the GI50 (HS 578T; read-out: GI50) was 1.56 µM and the CC50 (T-47D) was > 100 µM. The TGI (T-47D) was >1.00E−4, the “Percent Growth” value (T-47D; Log10 Concentration −4.0) was 10% and the “Percent Growth” value (T-47D; Log10 Concentration −5.0) was 32%. The “Percent Growth” value (T-47D; Log10 Concentration −6.0) was 78%, the “Percent Growth” value (T-47D; Log10 Concentration −7.0) was 94% and the “Percent Growth” value (T-47D; Log10 Concentration −8.0) was 105%. The GI50 (T-47D; read-out: GI50) was 4 µM, the CC50 (MCF7) was > 100 µM and the TGI (MCF7) was 8.14E−5. The “Percent Growth” value (MCF7; Log10 Concentration −4.0) was −4%, the “Percent Growth” value (MCF7; Log10 Concentration −5.0) was 37% and the “Percent Growth” value (MCF7; Log10 Concentration −6.0) was 54%. For the same molecule, the “Percent Growth” value (MCF7; Log10 Concentration −7.0) was 76%, the “Percent Growth” value (MCF7; Log10 Concentration −8.0) was 85% and the GI50 (MCF7; read-out: GI50) was 1.68 µM. For the same molecule, the CC50 (BT-549) was > 100 µM, the TGI (BT-549) was >1.00E−4 and the “Percent Growth” value (BT-549; Log10 Concentration −4.0) was 15%. For the same molecule, the “Percent Growth” value (BT-549; Log10 Concentration −5.0) was 60%, the “Percent Growth” value (BT-549; Log10 Concentration −6.0) was 95% and the “Percent Growth” value (BT-549; Log10 Concentration −7.0) was 100%. The “Percent Growth” value (BT-549; Log10 Concentration −8.0) was 101%, the GI50 (BT-549; read-out: GI50) was 16.7 µM and the CC50 (MDA-MB-231/ATCC) was > 100 µM. The TGI (MDA-MB-231/ATCC) was >1.00E−4, the “Percent Growth” value (MDA-MB-231/ATCC; Log10 Concentration −4.0) was 36% and the “Percent Growth” value (MDA-MB-231/ATCC; Log10 Concentration −5.0) was 54%. The “Percent Growth” value (MDA-MB-231/ATCC; Log10 Concentration −6.0) was 90%, the “Percent Growth” value (MDA-MB-231/ATCC; Log10 Concentration −7.0) was 95% and the “Percent Growth” value (MDA-MB-231/ATCC; Log10 Concentration −8.0) was 98%. For the same molecule, the GI50 (MDA-MB-231/ATCC; read-out: GI50) was 16.6 µM.
